Laboratory results from US7429658B2, “Synthesis of protected pyrrolobenzodiazepines” (Spirogen Limited, priority 2003, dated 2008).

Key:
[1] = molecular target: T1, Carboxypeptidase G2 (CPG2) (Pseudomonas sp., UniProt P06621); assay: Carboxypeptidase G2 (CPG2) cleavage of prodrug to parent PBD imine, monitored by reversed phase HPLC; format: biochemical; details: 100 μM prodrug, CPG2 (1 unit), 100 mM Tris-HCl pH 7.3, 260 μM ZnCl2, 37° C.
T1 sequence (P06621 23-415): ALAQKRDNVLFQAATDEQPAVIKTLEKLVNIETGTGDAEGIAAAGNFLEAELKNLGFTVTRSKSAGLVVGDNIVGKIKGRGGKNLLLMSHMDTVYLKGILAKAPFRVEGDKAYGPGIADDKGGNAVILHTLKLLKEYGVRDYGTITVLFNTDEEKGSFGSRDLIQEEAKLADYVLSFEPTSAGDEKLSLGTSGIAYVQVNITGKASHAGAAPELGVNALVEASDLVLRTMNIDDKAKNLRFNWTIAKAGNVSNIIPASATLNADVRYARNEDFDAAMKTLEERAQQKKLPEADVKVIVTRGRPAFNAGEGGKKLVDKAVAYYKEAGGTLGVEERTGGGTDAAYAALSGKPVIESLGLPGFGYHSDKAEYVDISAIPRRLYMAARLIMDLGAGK
Procedure: An aliquot of a 10 mM stock solution of the carbamate monomer prodrug was diluted to 100 μM in Carboxypeptidase G2 (CPG2) assay buffer (100 mM Tris-HCl, pH 7.3; 260 μM ZnCl2). CPG2 (1 unit) was added and the reaction was incubated at 37° C. The reaction was monitored by reversed phase HPLC (C18 column, 5 μM particle size, 250 mm×4.6 mm; mobile phase 70% H2O/30% CH3CN/0.1% TFA; detection at 245 nM) with 20 μL aliquots being injected at 0, 10, 20, 30, 40, 50 and 60 min. The conversion of the prodrug to the parent imine 30 was complete in 60 minutes.
An aliquot of a 10 mM stock solution of the carbamate dimer prodrug was diluted to 100 μM in Carboxypeptidase G2 (CPG2) assay buffer (100 mM Tris-HCl, pH 7.3; 260 μM ZnCl2). CPG2 (1 unit) was added and the reaction was incubated at 37° C. The reaction was monitored by reversed phase HPLC (C18 column, 5 μM particle size, 250 mm×4.6 mm; mobile phase 70% H2O/30% CH3CN/0.1% TFA; detection at 245 nM) with 20 μL aliquots being injected at 0, 15, 30, 45, 60 and 75 min. The conversion of the prodrug to the parent imine 61 was complete in 75 min.

[2] = Photolytic deprotection of N-10 protected PBD (irradiation at 365 nM), monitored by reversed phase HPLC; format: physicochemical; details: 0.25 g in MeOH (10 mL) irradiated at 365 nM; HPLC at 1 h intervals against standard of parent PBD 30
Procedure: A solution of the N-10 protected PBD (0.25 g) in MeOH (10 mL was irradiated at 365 nM. The reaction was monitored by reversed phase HPLC (C18 column, 5 μM particle size, 250 mm×4.6 mm; mobile phase 70% H2O/30% CH3CN/0.1% TFA; detection at 245 nM) against a standard sample of the parent PBD 30. Aliquots of the reaction mixture (20 μL) were injected at 1 h intervals. The conversion to parent PBD was complete in 12 h.

COc1cc2c(cc1OCCCCCOc1cc3c(cc1OC)C(=O)N1CCC[C@H]1[C@H](O)N3C(=O)OCc1ccc(OC(=O)N[C@@H](CCC(=O)O)C(=O)O)cc1)N(C(=O)OCc1ccc(OC(=O)N[C@@H](CCC(=O)O)C(=O)O)cc1)[C@@H](O)[C@@H]1CCCN1C2=O [Compound 68, 1,1′-[[Pentane-1,5-diyl]dioxy]bis[(11S,11aS)-10-[N-(4-(L-glutamylcarbonyloxy)benzyloxycarbonyl)]-11-hydroxy-7-methoxy-1,2,3,10,11,11a-hexahydro-5H-pyrrolo[2,1-c][1,4]benzodiazepine-5-one]]
conversion of the prodrug to the parent imine 61 complete in ([1]; HPLC aliquots every 15 min to 75 min): ≤ 75 min

COc1cc(COC(=O)N2c3cc(OC)c(OC)cc3C(=O)N3CCC[C@H]3[C@@H]2O)c([N+](=O)[O-])cc1OC [Compound 28, (11S,11aS)-7,8-Dimethoxy-11-hydroxy-5-oxo-1,2,3,10,11,11a-hexahydro-5H-pyrrolo[2,1-c][1,4]benzodiazepine-10-carboxylic acid 4,5-dimethoxy-2-nitro-benzyl ester]
conversion to parent PBD complete in [2]: ≤ 12 h

COc1cc2c(cc1OC)N(C(=O)OCc1ccc(OC(=O)N[C@@H](CCC(=O)O)C(=O)O)cc1)[C@@H](O)[C@@H]1CCCN1C2=O [Compound 46, 2-[4-((11S,11aS)-7,8-Dimethoxy-11-hydroxy-5-oxo-1,2,3,10,11,11a-hexahydro-5H-pyrrolo[2,1-c][1,4]benzodiazepine-10-carbonyloxymethyl)-phenoxycarbonylamino]-pentanedioic acid]
conversion of the prodrug to the parent imine 30 complete in ([1]; HPLC aliquots every 10 min to 60 min): ≤ 60 min
